{
  "source": "patent US7704976B2",
  "about": "“Use of N-acetyl-D-glucosamine for preparing medicines for urogenital tract infection's treatment and prevention” (Third Military Medical University, Chinese People's …, priority 2002, dated 2010)",
  "key": {"[1]": {"test_system": "bacillus pyocyaneus", "test": "Test of effect for suppressing bacillus pyocyaneus transplantation on skin", "description": "(§1) III. Tests of Effect for Suppressing Bacterial Transplantation\n(§2) • 1. Test of effect for suppressing bacillus pyocyaneus transplantation on skin • 2. Test of suppressing bacteria"}, "[2]": {"test_system": "trichomonas vaginalis infection", "test": "Clinic test, trichomonas vaginalis infection patients", "type": "in vivo, human", "details": "2% aerosol topically sprayed to infected areas", "method": "(§3) • 1. 170 patients suffering various venereal diseases were picked out, including 50 patients suffering gonorrhea, 50 patients suffering syphilis, 20 patients suffering condyloma acuminatum virus infection, 40 patients suffering trichomonas vaginalis infection, and 10 patients suffering candida albicans. 2% N-acetyl-D-glucosamine aerosol was topically sprayed to infected areas, and the effects of the compound of formula (I) for treatment of urogenital tract infections were determined by smearing and microscopic examination, and by isolation and culture.\n(§4) Observation of therapeutical effect of N-acetyl-D-glucosamine for treatment of urogenital tract infections"}, "[3]": {"details": "in vivo", "description": "II. Toxicological Test of the Compound of Formula (I), Including:\n• 1. Acute toxicity test: including tests of oral administration, intravenous injection administration, and maximum limit amount for administration. • 2. Ames test; • 3. Micronucleus test of mouse bone marrow cell; • 4. Abnormality test of mouse sperm; • 5. Aberration test of mouse testis chromosome; • 6. Chronic lethal test; • 7. Subchronic toxicity (feed for 90 days) test; • 8. Traditional deformity-inducing test."}, "[4]": {"test_system": "Proteus Mirabilis", "test": "Promoting wave test (bio-wave model on LB plate)", "type": "cell-based", "details": "final concentration of 0.5% on LB plate, 37° C.", "description": "1. […] 1.3 Experimental Method:"}, "[5]": {"test_system": "Gonorrhea", "test": "Clinic test, gonorrhea patients", "type": "in vivo, human", "details": "2% aerosol topically sprayed to infected areas", "method": "as §3, §4"}, "[6]": {"test_system": "various urogenital tract infections"}, "[7]": {"test_system": "bacteria", "test": "Test of suppressing bacteria", "type": "cell-based", "description": "as §1, §2"}, "[8]": {"test_system": "condyloma acuminatum virus infection", "test": "Clinic test, condyloma acuminatum virus infection patients", "type": "in vivo, human", "details": "2% aerosol topically sprayed to infected areas", "method": "as §3, §4"}, "[9]": {"test_system": "candida albicans", "test": "Clinic test, candida albicans patients", "type": "in vivo, human", "details": "2% aerosol topically sprayed to infected areas", "method": "as §3, §4"}, "[10]": {"test_system": "Syphilis", "test": "Clinic test, syphilis patients", "type": "in vivo, human", "details": "2% aerosol topically sprayed to infected areas", "method": "as §3, §4"}},
  "data": [
    {"smiles": "CC(=O)N[C@H]1C(O)O[C@H](CO)[C@@H](O)[C@@H]1O", "note": "(stereo partly drawn) [N-acetyl-D-glucosamine]", "values": [
      {"measurement": "transplantation and growth of bacillus pyocyaneus", "setting": "[1]", "result": "suppressed the transplantation and growth of bacillus pyocyaneus"},
      {"measurement": "Effective rate (%)", "setting": "[2]", "result": 75, "unit": "%"},
      {"measurement": "Ineffective rate (%)", "setting": "[2]", "result": 25, "unit": "%"},
      {"measurement": "dosage at which acute toxicosis reaction had not appeared", "setting": "[3]", "result": "more than 2 g/kg"},
      {"measurement": "promoting wave function (ring pattern versus control)", "setting": "[4]", "result": "many fine waves on each ring emerged"},
      {"measurement": "Effective rate (%)", "setting": "[5]", "result": 90, "unit": "%"},
      {"measurement": "Ineffective rate (%)", "setting": "[5]", "result": 10, "unit": "%"},
      {"measurement": "effective rate for treatment of various urogenital tract infections", "setting": "[6]", "result": 79, "unit": "%"},
      {"measurement": "bactericidal or bacteriostasis effect", "setting": "[7]", "result": "essentially exhibited no bactericidal or bacteriostasis effect"},
      {"measurement": "Effective rate (%)", "setting": "[8]", "result": 80, "unit": "%"},
      {"measurement": "Ineffective rate (%)", "setting": "[8]", "result": 20, "unit": "%"},
      {"measurement": "Effective rate (%)", "setting": "[9]", "result": 90, "unit": "%"},
      {"measurement": "Ineffective rate (%)", "setting": "[9]", "result": 10, "unit": "%"},
      {"measurement": "Effective rate (%)", "setting": "[10]", "result": 60, "unit": "%"},
      {"measurement": "Ineffective rate (%)", "setting": "[10]", "result": 40, "unit": "%"}
    ]}
  ]
}
